Blank lines part the entries; values can stand above or below the compound they belong to.
System: 782815-120-R-J1-PDC complex spheroid viability
Assay: Anticancer human tumor 782815-120-R-J1-PDC patient-derived colon adenocarcinoma cell line growth inhibition [RAS]
Conditions: for viability, T/C: stronger effect = lower value
Text: RAS pathway inhibitors in Combinations in Complex Spheroids
A high-throughput screen of multi-cell type tumor spheroids was designed to identify active combinations of RAS pathway inhibitors and targeted small molecules. Complex spheroids include a stromal component modeled by human endothelial cells (HUVEC) and fibroblasts modeled by human mesenchymal stem cells (MSCs). The concentration ranges selected for each drug and investigational agent were based upon clinically achievable concentrations if the clinical Cmax of the agent was known.
Compounds. The drugs and investigational agents: abemaciclib (NSC768073), cobimetinib (NSC768068), divarasib (GDC6063, NSC841802), docetaxel (NSC628503), GDC-1971 (RLY-1971, NSC841576), gemcitabine (NSC613327), inavolisib (NSC800729), ipatasertib (NSC767898), KB-0742 (NSC834161), MRTX-1133 (NSC836407), osimertinib (NSC779217), RMC-4630 (NSC839698), RMC-6236 (NSC851965), RMC-6291 (NSC852671), Ro-3306 (NSC812927), sapanisertib (NSC764658), SN-38 (NSC673596), staurosporine (NSC755774), SY5609 (NSC837396), and tovorafenib (DAY101, NSC766906), were obtained from the National Cancer Institute (NCI) Developmental Therapeutics Program Chemical Repository. The FDA-approved anticancer drug set is available from the NCI Developmental Therapeutics Program. […] The stock solutions were prepared in dimethyl sulfoxide (DMSO, Sigma-Aldrich, St. Louis, MO, cat. D2650) at 800-fold the tested concentration and stored at -70 degrees C prior to their use. All drugs and investigational agents were tested over a range starting from a high concentration at or near the clinical Cmax and decreasing in half-log increments. If the clinical Cmax for an agent had not been determined, the highest concentration tested was 10 microM.
Cell Culture. All cells were maintained in an incubator at 37 degrees C and 5% CO2 with 95% humidity. The PDC lines were cultured according to standard operating procedures established by the NCI PDMR. All PDCs were thawed and cultured in Matrigel-coated flasks prepared with a working solution of 1X Ham's F-12 nutrient mix, without supplementation (Invitrogen, Waltham, MA, cat. 11765054), 100 U/mL penicillin-streptomycin (Invitrogen, cat. 15140122), and 2.5% Matrigel (Corning Inc., Corning, NY, cat. 354248) for the first three passages. The 362531-283-R-J2-PDC and 782815-120-R-J1-PDC lines were cultured in 6C/Colon 1B media, which includes advanced DMEM/F-12 (Thermo Fisher Scientific, cat. 12634028), 10 mM HEPES (Thermo Fisher Scientific, cat. 15630080), 1X GlutaMAX supplement (Thermo Fisher Scientific, cat. 35050061), 0.1 mg/mL primocin (InvivoGen, San Diego, CA, cat. ant-pm-2), 10% defined fetal bovine serum, heat inactivated (HyClone Laboratories Inc., Logan, UT, cat. SH30070.03HI), 50% L-WRN conditioned media (ATCC, cat. CRL-3276), 1.25 mM N-Acetyl-L-cysteine (Sigma-Aldrich, cat. A9165), 10 mM nicotinamide (Sigma-Aldrich, cat. N0636), 1X B-27 supplement (Thermo Fisher Scientific, cat. 17504044), 1X N-2 supplement (Thermo Fisher Scientific, cat. 17502048), 50 ng/mL human EGF (Thermo Fisher Scientific, cat. PHG0311), and 10 microM Y-27632 dihydrochloride (Tocris Bioscience, cat. 1254). The K12877-001-R-J1-PDC line was cultured in 6I media, which includes all 6C/Colon 1B media plus 10 ng/mL human FGF-10 (PeproTech, cat. 100-26), 1 ng/mL human FGF-2 (PeproTech, cat. 100-18B), 1 µM prostaglandin E2 (Tocris Bioscience, cat. 2296), […] hydrocortisone (Sigma-Aldrich, cat. H4001), and […] bovine insulin (Sigma-Aldrich, cat. I6634). The K86415-001-R-J1-PDC line was cultured in 6D media, which includes all 6C/Colon 1B media components minus the L-WRN conditioned media. The 485176-168-R4-J1-PDC was cultured in PANC media, which includes all 6C/Colon 1B media plus 100 ng/mL human FGF-10 (PeproTech, cat. 100-26), 500 nM SB-431542 (Selleckchem, cat. S1067), and 10 nM gastrin (Tocris Bioscience, cat. 3006). […]
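Also: spheroids exposed to compounds for 7 days before reading.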
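For viability, T/C in this document: 100% = DMSO vehicle control viability.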

- IC50 (curve of first compound, second compound 0.0316 µM): 4.66 nM
- IC50 (curve of first compound, second compound 0.1 µM): 4.39 nM
- IC50 (curve of first compound, second compound 0.316 µM): 4.86 nM
- IC50 (curve of first compound, second compound 1 µM): 4.76 nM
- IC50 (curve of first compound, second compound 3.16 µM): 4.2 nM
- IC50 (curve of first compound, second compound 10 µM): 4.39 nM
SMILES: CCc1c2c(nc3ccc(O)cc13)-c1cc3c(c(=O)n1C2)COC(=O)[C@]3(O)CC + C#Cc1c(F)ccc2cc(O)cc(-c3ncc4c(N5CC6CCC(C5)N6)nc(OCC56CCCN5CC(F)C6)nc4c3F)c12
- viability, T/C (second compound 0.0316 µM, first compound 0.000949 µM): 94.9%
- viability, T/C (second compound 0.0316 µM, first compound 0.003 µM): 67.9%
- viability, T/C (second compound 0.0316 µM, first compound 0.00949 µM): 20.8%
- viability, T/C (second compound 0.0316 µM, first compound 0.03 µM): 9.58%
- viability, T/C (second compound 0.0316 µM, first compound 0.0949 µM): 4.66%
- viability, T/C (second compound 0.0316 µM, first compound 0.3 µM): 1.46%
- viability, T/C (second compound 0.1 µM, first compound 0.000949 µM): 98.9%
- viability, T/C (second compound 0.1 µM, first compound 0.003 µM): 64%
- viability, T/C (second compound 0.1 µM, first compound 0.00949 µM): 21.4%
- viability, T/C (second compound 0.1 µM, first compound 0.03 µM): 10.5%
- viability, T/C (second compound 0.1 µM, first compound 0.0949 µM): 4.8%
- viability, T/C (second compound 0.1 µM, first compound 0.3 µM): 1.59%
- viability, T/C (second compound 0.316 µM, first compound 0.000949 µM): 96.9%
- viability, T/C (second compound 0.316 µM, first compound 0.003 µM): 69.3%
- viability, T/C (second compound 0.316 µM, first compound 0.00949 µM): 22.6%
- viability, T/C (second compound 0.316 µM, first compound 0.03 µM): 10.5%
- viability, T/C (second compound 0.316 µM, first compound 0.0949 µM): 3.58%
- viability, T/C (second compound 0.316 µM, first compound 0.3 µM): 1.52%
- viability, T/C (second compound 1 µM, first compound 0.000949 µM): 99.9%
- viability, T/C (second compound 1 µM, first compound 0.003 µM): 67.4%
- viability, T/C (second compound 1 µM, first compound 0.00949 µM): 23.6%
- viability, T/C (second compound 1 µM, first compound 0.03 µM): 9.52%
- viability, T/C (second compound 1 µM, first compound 0.0949 µM): 3.42%
- viability, T/C (second compound 1 µM, first compound 0.3 µM): 1.25%
- viability, T/C (second compound 3.16 µM, first compound 0.000949 µM): 99.3%
- viability, T/C (second compound 3.16 µM, first compound 0.003 µM): 61.9%
- viability, T/C (second compound 3.16 µM, first compound 0.00949 µM): 21%
- viability, T/C (second compound 3.16 µM, first compound 0.03 µM): 8.73%
- viability, T/C (second compound 3.16 µM, first compound 0.0949 µM): 3.05%
- viability, T/C (second compound 3.16 µM, first compound 0.3 µM): 1.2%
- viability, T/C (second compound 10 µM, first compound 0.000949 µM): 102%
- viability, T/C (second compound 10 µM, first compound 0.003 µM): 64%
- viability, T/C (second compound 10 µM, first compound 0.00949 µM): 21%
- viability, T/C (second compound 10 µM, first compound 0.03 µM): 11.2%
- viability, T/C (second compound 10 µM, first compound 0.0949 µM): 2.93%
- viability, T/C (second compound 10 µM, first compound 0.3 µM): 0.95%

- IC50 (compound alone, run of 07/15/2024): > 1000 nM
- IC50 (curve of compound): > 1000 nM
SMILES: C=CC(=O)N1CCN(c2nc(OCC3CCCN3C)nc3c(F)c(-c4nc(N)cc(C)c4C(F)(F)F)c(Cl)cc23)C(C)C1 (stereo not given)
- viability, T/C (compound 0.00316 µM): 99.4% [middle of 12 runs]
- viability, T/C (compound 0.01 µM): 102% [middle of 12 runs]
- viability, T/C (compound 0.0316 µM): 102% [middle of 12 runs]
- viability, T/C (compound 0.1 µM): 99.2% [middle of 12 runs]
- viability, T/C (compound 0.316 µM): 102% [middle of 12 runs]
- viability, T/C (compound 1 µM): 96.7% [middle of 12 runs]

Source: PubChem BioAssay AID2060887 (Molecular Pharmacology Branch, DTP, NCI, 2025)
